Results as given in the supplement of paper PMC4862054.

Tests used:
Assay in all cases: normalised response (% of control), CellTox Green; higher = less cell death (100 = DMSO, 0 = benzethonium chloride kill control)
Conditions in all cases: incubation time: 72 h
[1] = system: MFM-223
Procedure, shortened: (§1)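 Values are normalised signals, each belonging to one concentration of the series. Breast cancer cells (20 µl suspension) were seeded into 384-well plates with compound at 5 concentrations in 10-fold steps over a compound-specific 10,000-fold range and incubated 72 h. Readouts were CellTox Green fluorescence (485/520 nm), then CellTiter-Glo luminescence after 10 min at room temperature, with each plate set to 0.1 % DMSO as 100 and a positive kill control as 0.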

[2] = system: HDQ-P1
Procedure, shortened: as §1

[3] = system: HCC1143
Procedure, shortened: as §1

[4] = system: CAL-85-1
Procedure, shortened: as §1

[5] = system: HCC1937
Procedure, shortened: as §1

[6] = system: CAL-51
Procedure, shortened: as §1

[7] = system: MCF-10A
Procedure, shortened: as §1

[8] = system: Hs578T
Procedure, shortened: as §1

| SMILES | normalised response [1] [%] | normalised response [2] [%] | normalised response [3] [%] | normalised response [4] [%] | normalised response [5] [%] | normalised response [6] [%] | normalised response [7] [%] | normalised response [8] [%] |
| --- | --- | --- | --- | --- | --- | --- | --- | --- |
| CC(C)(C)NC(=O)[C@H]1CC[C@H]2[C@@H]3CC[C@H]4NC(=O)C=C[C@]4(C)[C@H]3CC[C@]12C [Finasteride] (1000 nM) | 93.2 | 113 | 96.8 | 107 | 116 | 107 | 91.2 | 107 |
| CC(C)(C)NC(=O)[C@H]1CC[C@H]2[C@@H]3CC[C@H]4NC(=O)C=C[C@]4(C)[C@H]3CC[C@]12C [Finasteride] (10000 nM) | – | 102 | 81.5 | 91.2 | 77.4 | 100 | 94.1 | – |
| Nc1ccn([C@@H]2O[C@H](CO)[C@@H](O)C2(F)F)c(=O)n1 [Gemcitabine] (100 nM) | 101 | 87.8 | 111 | 87.8 | 89 | 32.1 | 94.5 | 103 |
| Nc1ccn([C@@H]2O[C@H](CO)[C@@H](O)C2(F)F)c(=O)n1 [Gemcitabine] (1000 nM) | 104 | 108 | 103 | 73 | 108 | 55.1 | 90.5 | 123 |
| CC(C)C[C@H](NC(=O)[C@@H](COC(C)(C)C)NC(=O)[C@H](Cc1ccc(O)cc1)NC(=O)[C@H](CO)NC(=O)[C@H](Cc1c[nH]c2ccccc12)NC(=O)[C@H](Cc1cnc[nH]1)NC(=O)[C@@H]1CCC(=O)N1)C(=O)N[C@@H](CCCNC(=N)N)C(=O)N1CCC[C@H]1C(=O)NNC(N)=O [Goserelin] (1000 nM) | 83.2 | 107 | 112 | 106 | 83.8 | 105 | – | 102 |
| CC(C)C[C@H](NC(=O)[C@@H](COC(C)(C)C)NC(=O)[C@H](Cc1ccc(O)cc1)NC(=O)[C@H](CO)NC(=O)[C@H](Cc1c[nH]c2ccccc12)NC(=O)[C@H](Cc1cnc[nH]1)NC(=O)[C@@H]1CCC(=O)N1)C(=O)N[C@@H](CCCNC(=N)N)C(=O)N1CCC[C@H]1C(=O)NNC(N)=O [Goserelin] (10000 nM) | – | 62.5 | – | 114 | 88 | 104 | 75.6 | – |
| CC(=O)[C@]1(O)Cc2c(O)c3c(c(O)c2[C@@H](O[C@H]2C[C@H](N)[C@H](O)[C@H](C)O2)C1)C(=O)c1ccccc1C3=O [Idarubicin] (100 nM) | 99.2 | – | 102 | 86.2 | 110 | 70.2 | 112 | 103 |
| CC(=O)[C@]1(O)Cc2c(O)c3c(c(O)c2[C@@H](O[C@H]2C[C@H](N)[C@H](O)[C@H](C)O2)C1)C(=O)c1ccccc1C3=O [Idarubicin] (1000 nM) | 37.8 | 85.6 | 110 | -10.6 | 113 | -13.1 | 34.9 | 84 |
| C/C(=C\c1csc(C)n1)[C@@H]1C[C@@H]2O[C@]2(C)CCC[C@H](C)[C@H](O)[C@@H](C)C(=O)C(C)(C)[C@@H](O)CC(=O)N1 [Ixabepilone] (100 nM) | 98.8 | – | 102 | 95.9 | – | 35.9 | 87.7 | 95.5 |
| C/C(=C\c1csc(C)n1)[C@@H]1C[C@@H]2O[C@]2(C)CCC[C@H](C)[C@H](O)[C@@H](C)C(=O)C(C)(C)[C@@H](O)CC(=O)N1 [Ixabepilone] (1000 nM) | 105 | 96.2 | 120 | 14.6 | 92.4 | 33.8 | 101 | 115 |
| C=CCn1c(=O)c2cnc(Nc3ccc(N4CCN(C)CC4)cc3)nc2n1-c1cccc(C(C)(C)O)n1 [MK1775] (1000 nM) | 68.5 | 48.7 | 103 | 25.9 | 103 | 17.8 | 64.5 | 71.9 |
| C=CCn1c(=O)c2cnc(Nc3ccc(N4CCN(C)CC4)cc3)nc2n1-c1cccc(C(C)(C)O)n1 [MK1775] (10000 nM) | 67.2 | 40.5 | 14.8 | 4.99 | 65.6 | 41.9 | -5.92 | 33.3 |
| CO[C@@H]1[C@H](N(C)C(=O)c2ccccc2)C[C@H]2O[C@]1(C)n1c3ccccc3c3c4c(c5c6ccccc6n2c5c31)C(=O)NC4 [Midostaurin] (1000 nM) | 78.8 | 93 | 63.8 | 92.1 | 52.8 | -37.7 | 93.8 | 64.2 |
| CO[C@@]12[C@H](COC(N)=O)C3=C(C(=O)C(C)=C(N)C3=O)N1C[C@@H]1N[C@@H]12 [Mitomycin C] (10000 nM) | – | 71.8 | 36.6 | 102 | 108 | -36.9 | 85.4 | 77.6 |
| CC1(C)CCC(c2ccc(Cl)cc2)=C(CN2CCN(c3ccc(C(=O)NS(=O)(=O)c4ccc(N[C@H](CCN5CCOCC5)CSc5ccccc5)c(S(=O)(=O)C(F)(F)F)c4)cc3)CC2)C1 [Navitoclax] (1000 nM) | 95.8 | 54.7 | 92.9 | 79.3 | 92.8 | 60.1 | – | 84.3 |
| O=C(CCCCCCC(=O)Nc1ccccc1)NO [Vorinostat] (1000 nM) | 97.3 | – | 100 | 95.5 | 122 | 96.6 | 89.9 | 78.8 |
